Laboratory results taken from paper PMC11882969 (Nature Communications, 2025).
Where “and” joins values, the source holds several entries; their conditions need not be identical. Identical values can stand only once. Like-named read-outs stand apart in the source and are kept apart here.

How the values were obtained:
hCB1 = hCB1 (Homo sapiens, UniProt P21554); assay: bioSensAll ebBRET signaling profiling, hCB1; assay type: cell-based; set-up: host or cells: HEK293SL cells, transient PEI transfection; settings: for RE, relative efficacy: vs CP-55,940; for EC50: read-out: EC50 [95% CI]; for Emax: normalized to CP-55,940
Chain of hCB1 (P21554 whole entry): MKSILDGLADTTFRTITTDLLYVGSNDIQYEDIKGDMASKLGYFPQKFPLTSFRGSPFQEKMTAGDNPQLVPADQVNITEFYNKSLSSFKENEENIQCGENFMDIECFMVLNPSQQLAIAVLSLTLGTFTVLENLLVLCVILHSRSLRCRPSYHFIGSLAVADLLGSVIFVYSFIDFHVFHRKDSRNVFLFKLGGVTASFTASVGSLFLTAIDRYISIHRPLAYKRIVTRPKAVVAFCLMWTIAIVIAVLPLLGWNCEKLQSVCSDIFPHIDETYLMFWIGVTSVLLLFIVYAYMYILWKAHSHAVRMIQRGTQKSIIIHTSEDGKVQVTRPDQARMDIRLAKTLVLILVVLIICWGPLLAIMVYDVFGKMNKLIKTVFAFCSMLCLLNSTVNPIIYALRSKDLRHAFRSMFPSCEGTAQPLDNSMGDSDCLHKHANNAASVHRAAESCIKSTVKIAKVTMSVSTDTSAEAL

CB1 (rCB1) = CB1 (rCB1) (Rattus norvegicus, UniProt P20272); assay: Radioligand competition binding, [3H]-CP-55,940, rat brain membranes
Chain of CB1 (rCB1) (P20272 whole entry): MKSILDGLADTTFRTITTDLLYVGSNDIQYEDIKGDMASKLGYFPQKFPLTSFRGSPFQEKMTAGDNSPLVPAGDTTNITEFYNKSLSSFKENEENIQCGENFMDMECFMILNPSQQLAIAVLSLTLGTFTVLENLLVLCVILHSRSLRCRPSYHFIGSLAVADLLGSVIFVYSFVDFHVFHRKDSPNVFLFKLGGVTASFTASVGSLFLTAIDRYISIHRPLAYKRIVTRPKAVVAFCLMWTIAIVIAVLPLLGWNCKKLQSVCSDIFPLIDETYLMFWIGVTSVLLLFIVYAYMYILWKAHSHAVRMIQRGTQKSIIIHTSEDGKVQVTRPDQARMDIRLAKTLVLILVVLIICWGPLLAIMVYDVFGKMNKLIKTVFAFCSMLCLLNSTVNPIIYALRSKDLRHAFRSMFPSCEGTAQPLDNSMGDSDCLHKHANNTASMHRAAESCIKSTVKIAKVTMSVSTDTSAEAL

hCB2 = hCB2 (Homo sapiens, UniProt P34972); assay: Tango β-arrestin-2 recruitment, HTLA cells, CB2R; assay type: cell-based; set-up: expressed in transfected cells; host or cells: HEK293 cells stably expressing human CB2R (Laboratory of Ken Mackie); settings: hCB2
Chain of hCB2 (P34972 whole entry): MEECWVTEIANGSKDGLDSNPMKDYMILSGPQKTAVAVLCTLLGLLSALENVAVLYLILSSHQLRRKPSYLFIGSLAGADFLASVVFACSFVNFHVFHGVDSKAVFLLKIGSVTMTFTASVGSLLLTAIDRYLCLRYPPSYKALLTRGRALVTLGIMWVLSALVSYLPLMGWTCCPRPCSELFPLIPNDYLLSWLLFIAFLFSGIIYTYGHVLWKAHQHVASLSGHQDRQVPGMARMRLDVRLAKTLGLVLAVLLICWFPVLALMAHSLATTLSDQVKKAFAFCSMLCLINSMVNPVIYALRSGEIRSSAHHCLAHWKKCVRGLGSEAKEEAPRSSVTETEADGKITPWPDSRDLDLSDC
Procedure: The Tango β-arrestin-2 recruitment assays were performed as described[83]. In brief, HTLA cells (a gift from the laboratory of R. Axel) were transiently transfected with human CB1R or CB2R Tango DNA construct overnight in DMEM supplemented with 10 % FBS, 100 µg ml−1 streptomycin and 100 U ml−1 penicillin. The transfected cells were then plated into poly-L-lysine-coated 384-well white clear-bottom cell culture plates in DMEM containing 1% dialysed FBS at a density of 10,000–15,000 cells per well. After incubation for 6 h, the plates were added with drug solutions prepared in DMEM containing 1% dialysed FBS for overnight incubation. On the day of assay, medium and drug solutions were removed and 20 µl per well of BrightGlo reagent (Promega) was added. The plates were further incubated for 20 min at room temperature and counted using the Wallac TriLux Microbeta counter (PerkinElmer). The results were analysed using GraphPad Prism 9. Each experiment was performed in triplicate and functional IC50 values were determined from the mean of three independent experiments.

COC(=O)C(C)(NC(=O)c1cc(C)n(-c2cccc(C(F)(F)F)c2)n1)c1cccs1 (stereo not shown) [‘4042]
Gs hCB1 (hCB1; Log [Compound] (M) -8): 6741
Gz hCB1 (hCB1; Log [Compound] (M) -8): 97.3733 and 99.8321 and 82.6809
Barr2+GRK2 hCB1 (hCB1; Log [Compound] (M) -8.22186): 47.6346 and 43.8472
G13 hCB1 (hCB1; Log [Compound] (M) -8.22186): 44.4318 and 47.6121
G15 hCB1 (hCB1; Log [Compound] (M) -8.22186): 112.142 and 106.076
Gi1 hCB1 (hCB1; Log [Compound] (M) -8.22186): 104.327 and 106.186 and 100.167
Gi2 hCB1 (hCB1; Log [Compound] (M) -8.22186): 112.022 and 97.4049
GoB hCB1 (hCB1; Log [Compound] (M) -8.22186): 115.24 and 97.3514 and 98.8499
Gq hCB1 (hCB1; Log [Compound] (M) -8.22186): 1073
Gs hCB1 (hCB1; Log [Compound] (M) -8.22186): 6493
Gz hCB1 (hCB1; Log [Compound] (M) -8.22186): 122.54 and 109.635 and 78.9413
Barr2+GRK2 hCB1 (hCB1; Log [Compound] (M) -8.39794): 32.0865 and 32.6356
G15 hCB1 (hCB1; Log [Compound] (M) -8.39794): 101.826 and 96.5808
Gi1 hCB1 (hCB1; Log [Compound] (M) -8.39794): 93.4953 and 99.8959 and 97.0977
Gi2 hCB1 (hCB1; Log [Compound] (M) -8.39794): 102.295 and 80.9389
GoB hCB1 (hCB1; Log [Compound] (M) -8.39794): 81.1381 and 111.288 and 86.2389
Gq hCB1 (hCB1; Log [Compound] (M) -8.39794): 1055
Gs hCB1 (hCB1; Log [Compound] (M) -8.39794): 6872
Gz hCB1 (hCB1; Log [Compound] (M) -8.39794): 84.7686 and 103.436 and 80.0517
G13 hCB1 (hCB1; Log [Compound] (M) -8.68787): 39.593 and 30.3572
G15 hCB1 (hCB1; Log [Compound] (M) -8.68787): 97.8136 and 87.6381
Gi1 hCB1 (hCB1; Log [Compound] (M) -8.68787): 91.7785 and 78.2511 and 91.448
Gi2 hCB1 (hCB1; Log [Compound] (M) -8.68787): 95.663 and 73.4469
GoB hCB1 (hCB1; Log [Compound] (M) -8.68787): 96.3854 and 73.3436 and 84.1561
Gq hCB1 (hCB1; Log [Compound] (M) -8.68787): 1066
Gs hCB1 (hCB1; Log [Compound] (M) -8.68787): 6260
Gz hCB1 (hCB1; Log [Compound] (M) -8.68787): 96.1128 and 114.514 and 58.5255
G13 hCB1 (hCB1; Log [Compound] (M) -9.15521): 17.7531 and 19.6344
G15 hCB1 (hCB1; Log [Compound] (M) -9.15521): 67.1744 and 66.4649
Gi1 hCB1 (hCB1; Log [Compound] (M) -9.15521): 78.7311 and 50.1158 and 63.8224
Gi2 hCB1 (hCB1; Log [Compound] (M) -9.15521): 65.4704 and 47.7485
GoB hCB1 (hCB1; Log [Compound] (M) -9.15521): 59.8283 and 42.5561 and 56.6226
Gq hCB1 (hCB1; Log [Compound] (M) -9.15521): 1117
Gs hCB1 (hCB1; Log [Compound] (M) -9.15521): 6551
G15 hCB1 (hCB1; Log [Compound] (M) -9.61989): 31.8785 and 42.2144
Gi2 hCB1 (hCB1; Log [Compound] (M) -9.61989): 32.2472 and 21.8596
GoB hCB1 (hCB1; Log [Compound] (M) -9.61989): 29.5611 and 20.1669 and 24.5425
Gq hCB1 (hCB1; Log [Compound] (M) -9.61989): 1001
Gs hCB1 (hCB1; Log [Compound] (M) -9.61989): 6299
G15 hCB1 (hCB1; Log [Compound] (M) -10.0969): 15.3529 and 24.9603
GoB hCB1 (hCB1; Log [Compound] (M) -10.0969): 15.2383 and 7.632 and 9.061
Gq hCB1 (hCB1; Log [Compound] (M) -10.0969): 1213
Gs hCB1 (hCB1; Log [Compound] (M) -10.0969): 6447
Gq hCB1 (hCB1; Log [Compound] (M) -10.5529): 1076
Gs hCB1 (hCB1; Log [Compound] (M) -10.5529): 6140
Gq hCB1 (hCB1; Log [Compound] (M) -11.0177): 1045
Gs hCB1 (hCB1; Log [Compound] (M) -11.0177): 6569
Gq hCB1 (hCB1; Log [Compound] (M) -11.4949): 1094
Gs hCB1 (hCB1; Log [Compound] (M) -11.4949): 6245
Gq hCB1 (hCB1; Log [Compound] (M) -11.9208): 1111
Gs hCB1 (hCB1; Log [Compound] (M) -11.9208): 6591
Gq hCB1 (hCB1; Log [Compound] (M) -12.3979): 1117
Gs hCB1 (hCB1; Log [Compound] (M) -12.3979): 6511
Gq hCB1 (hCB1; Log [Compound] (M) -12.8861): 1023
Gs hCB1 (hCB1; Log [Compound] (M) -12.8861): 6621
pEC50 [95% CI] (hCB1; hCB1 G13): 8.69 [8.0 – 9.3]
RE, relative efficacy (hCB1; hCB1 G13): 0.91
RE, relative efficacy (hCB1; hCB1 G15): 0.74
pEC50 [95% CI] (hCB1; hCB1 Gi1): 9.32 [9.2 – 9.4]
RE, relative efficacy (hCB1; hCB1 Gi1): 0.97
pEC50 [95% CI] (hCB1; hCB1 Gi2): 9.25 [9.0 – 9.5]
RE, relative efficacy (hCB1; hCB1 Gi2): 1.01
pEC50 [95% CI] (hCB1; hCB1 GoB): 9.20 [9.1 – 9.3]
RE, relative efficacy (hCB1; hCB1 GoB): 1.04
RE, relative efficacy (hCB1; hCB1 Gz): 0.62
RE, relative efficacy (hCB1; hCB1 ßarr2+GRK2): 0.81
EC50 (hCB1; hCB1 Barr2 + GRK2): 3.6 nM
EC50 (hCB1; hCB1 G13): 2.1 nM
EC50 (hCB1; hCB1 G15): 0.37 nM
EC50 (hCB1; hCB1 GoB): 0.64 nM
EC50 (hCB1; hCB1 Gz): 0.43 nM
Emax (hCB1; read-out: Emax [95% CI], hCB1 Barr2 + GRK2): 72%
Emax (hCB1; read-out: Emax [95% CI], hCB1 G13): 64%
Emax (hCB1; read-out: Emax [95% CI], hCB1 G15): 105%
Emax (hCB1; read-out: Emax [95% CI], hCB1 Gi2): 101%
Emax (hCB1; read-out: Emax [95% CI], hCB1 GoB): 103%
Emax (hCB1; read-out: Emax [95% CI], hCB1 Gz): 97%
pKi [95% CI] (CB1 (rCB1); rCB1): 8.7 [8.6 – 8.9]
Ki (CB1 (rCB1); read-out: Ki [95% CI], rCB1, [3H]-CP-55,940): 1.9 nM and 1.86 nM
Emax (hCB2; HTLA, read-out: Tango ß-arrestin recruitment Emax): 28%
Tango ß-arrestin recruitment pEC50 (hCB2): 7.5 [7.2 – 7.7]
EC50 (hCB2; read-out: Tango ß-arrestin recruitment EC50): 33.9 nM
